Reference: patent publication US8399482B2, “6-substituted isoquinolines and isoquinolinones” (Sanofi, priority 2008, dated 2013)

Experiments:
Format in all cases: biochemical
[1] = molecular target: T1, human recombinant ROCK II (Homo sapiens, UniProt O75116); assay: Determination of Rho kinase inhibition (ROCK II, Caliper peptide phosphorylation assay); details: respective form (salt or free base) as obtained in the examples, 60 min at 32° C.
T1 construct: recombinant human ROCK-II residues 11-552; His6 (N); purchased Millipore GmbH, Schwalbach, Germany
Method: To measure Rho-kinase inhibition, IC50 values were determined according to the following protocol:
Active human recombinant ROCK II (N-terminal His6-tagged recombinant human ROCK-II residues 11-552) was purchased from Millipore GmbH, Schwalbach, Germany. The peptide substrate, Fluorescein-[…]-COOH, was obtained from JPT Peptide Technologies, Berlin, Germany. Adenosine-5′-triphosphate (ATP), bovine serum albumine (BSA), dimethylsulphoxide (DMSO), 4-(2-hydroxyethyl)piperazine-1-ethanesulfonic acid (Hepes), Brij-35, dithiothreitol (DTT) and Pluronic F-68 were purchased from Sigma-Aldrich, Munich, Germany. Tris(hydroxymethyl)-aminomethane (Tris), magnesium chloride, NaOH, 1M HCl and EDTA were obtained from Merck Biosciences, Darmstadt, Germany. “Complete” protease inhibitor was from Roche Diagnostics, Mannheim, Germany. Test compounds were diluted to the appropriate concentrations in buffer 1 (25 mM Tris-HCl, pH 7.4, 5 mM MgCl2, 2 mM DTT, 0.02% (w/v) BSA, 0.01% Pluronic F-68 and 3% DMSO). The ROCK II enzyme was diluted to a concentration of 100 ng/mL in buffer 2 (25 mM Tris-HCl, pH 7.4, 5 mM MgCl2, 2 mM DTT and 0.02% (w/v) BSA). The peptide substrate and ATP were diluted to concentrations of 3 μM and 120 μM, respectively, in the buffer 2. Two μl of the compound solution were mixed with 2 μl of the diluted enzyme in a 384-well small volume microtiter plate (Greiner, Bio-One, Frickenhausen, Germany), and the kinase reaction was initiated by addition of 2 μl of the solution containing peptide substrate and ATP. After 60 min incubation at 32° C., the reaction was stopped by addition of 20 μl of a solution containing 100 mM Hepes-NaOH, pH 7.4, 0.015% (v/v) Brij-35, 45 mM EDTA and 0.227% chip coating reagent 1 (Caliper Lifescience Inc, Hopkinton, Mass.). Phosphorylation of the substrate peptide was then detected on a Caliper 3000 instrument essentially as described by Pommereau et al (J. Biomol. Screening 2004, 9(5), 409-416). Separation conditions were as follows: Pressure −1.3 psi, upstream voltage −1562 V, downstream voltage −500 V, sample sip time 200 ms. Positive controls (buffer 1 instead of compound) and negative controls (buffer 1 instead of compound and buffer 2 instead of ROCK II) were run in parallel on each plate.
The following products/compounds were tested in said assay by using the respective form (salt or free base) obtained as in the examples described above and the following activities were measured

recombinant human PKA = molecular target: T2, recombinant human PKA (Homo sapiens, UniProt P17612); assay: Determination of Protein Kinase A inhibition (selectivity); details: from IC50 values
T2 construct: recombinant human PKA (residues 1-351, N-terminal His-tag); His-tag (N); purchased Invitrogen, Karlsruhe, Germany
Method: (§1) 2) Determination of Protein Kinase a and Protein Kinase G Inhibition
(§2) To measure PKA and PKG1-beta inhibition, IC50 values were determined according to the following protocol:
(§3) Active recombinant human PKG1-beta (full-length, with N-terminal His-tag) was purchased from Millipore GmbH, Schwalbach, Germany. Active recombinant human PKA (residues 1-351, N-terminal His-tag) was obtained from Invitrogen, Karlsruhe, Germany. The peptide substrate, Fluorescein-[…]-COOH, was obtained from JPT Peptide Technologies, Berlin, Germany. Adenosine-5′-triphosphate (ATP), bovine serum albumine (BSA), dimethylsulphoxide (DMSO), 4-(2-Hydroxyethyl)piperazine-1-ethanesulfonic acid (Hepes), Brij-35, dithiothreitol (DTT) and Pluronic F-68 were purchased from Sigma-Aldrich, Munich, Germany. Tris(hydroxymethyl)-aminomethane (Tris), magnesium chloride, NaOH, 1M HCl and EDTA were obtained from Merck Biosciences, Darmstadt, Germany. “Complete” protease inhibitor was from Roche Diagnostics, Mannheim, Germany. Test compounds were diluted to the appropriate concentrations in buffer 1 (25 mM Tris-HCl, pH 7.4, 5 mM MgCl2, 2 mM DTT, 0.02% (w/v) BSA, 0.01% Pluronic F-68 and 3% DMSO). PKG1-beta and PKA were diluted to concentrations of 150 ng/ml and 30 ng/ml, respectively, in buffer 2. The peptide substrate and ATP were diluted to concentrations of 3 μM and 120 μM, respectively, in the buffer 2. Two μl of the compound solution were mixed with 2 μl of the diluted enzyme in a 384-well small volume microtiter plate (Greiner, Bio-One, Frickenhausen, Germany), and the kinase reaction was initiated by addition of 2 μl of the solution containing peptide substrate and ATP. After 60 min incubation at 32° C., the reaction was stopped by addition of 20 μl of a solution containing 100 mM Hepes-NaOH, pH 7.4, 0.015% (v/v) Brij-35, 45 mM EDTA and 0.227% chip coating reagent 1 (Caliper Lifescience Inc, Hopkinton, Mass.). Phosphorylation of the substrate peptide was then detected on a Caliper 3000 instrument essentially as described by Pommereau et al (J. Biomol. Screening 9(5), 409-416, 2004). Separation conditions were as follows: Pressure −1.3 psi, upstream voltage −1562 V, downstream voltage −500 V, sample sip time 200 ms, Positive controls (buffer 1 instead of compound) and negative controls (buffer 1 instead of compound and buffer 2 instead of kinase solution) were run in parallel on each plate. The following products/compounds were tested in said assay by using the respective form (salt or free base) obtained as in the examples described above and the following activities were measured.

[2] = molecular target: T3, recombinant human PKG1-beta (Homo sapiens, UniProt Q13976); assay: Determination of Protein Kinase G inhibition (selectivity); details: from IC50 values
T3 construct: PKG1-beta (full-length, with N-terminal His-tag); His-tag (N); purchased Millipore GmbH, Schwalbach, Germany
T3 sequence (Q13976 1-686 isoform Q13976-2): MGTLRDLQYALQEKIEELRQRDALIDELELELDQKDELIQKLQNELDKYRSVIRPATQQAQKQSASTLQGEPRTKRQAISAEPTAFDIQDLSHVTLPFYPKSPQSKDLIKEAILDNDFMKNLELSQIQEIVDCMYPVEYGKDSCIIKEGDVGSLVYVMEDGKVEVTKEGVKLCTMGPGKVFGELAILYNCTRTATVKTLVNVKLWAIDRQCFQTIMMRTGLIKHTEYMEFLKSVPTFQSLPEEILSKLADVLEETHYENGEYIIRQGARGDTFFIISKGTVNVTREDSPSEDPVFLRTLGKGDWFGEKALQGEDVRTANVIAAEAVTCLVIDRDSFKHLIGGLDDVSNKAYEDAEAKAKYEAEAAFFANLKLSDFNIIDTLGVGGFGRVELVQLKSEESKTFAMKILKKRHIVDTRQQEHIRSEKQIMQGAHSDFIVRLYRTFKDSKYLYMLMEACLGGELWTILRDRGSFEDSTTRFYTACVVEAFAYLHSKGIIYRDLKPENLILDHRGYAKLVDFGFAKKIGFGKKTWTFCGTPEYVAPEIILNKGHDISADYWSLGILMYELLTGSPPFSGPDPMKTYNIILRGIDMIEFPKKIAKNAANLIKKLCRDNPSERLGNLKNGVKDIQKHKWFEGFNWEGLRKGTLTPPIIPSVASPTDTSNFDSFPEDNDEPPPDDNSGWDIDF
Method: as §1, §2, §3

T1 sequence (O75116 11-552): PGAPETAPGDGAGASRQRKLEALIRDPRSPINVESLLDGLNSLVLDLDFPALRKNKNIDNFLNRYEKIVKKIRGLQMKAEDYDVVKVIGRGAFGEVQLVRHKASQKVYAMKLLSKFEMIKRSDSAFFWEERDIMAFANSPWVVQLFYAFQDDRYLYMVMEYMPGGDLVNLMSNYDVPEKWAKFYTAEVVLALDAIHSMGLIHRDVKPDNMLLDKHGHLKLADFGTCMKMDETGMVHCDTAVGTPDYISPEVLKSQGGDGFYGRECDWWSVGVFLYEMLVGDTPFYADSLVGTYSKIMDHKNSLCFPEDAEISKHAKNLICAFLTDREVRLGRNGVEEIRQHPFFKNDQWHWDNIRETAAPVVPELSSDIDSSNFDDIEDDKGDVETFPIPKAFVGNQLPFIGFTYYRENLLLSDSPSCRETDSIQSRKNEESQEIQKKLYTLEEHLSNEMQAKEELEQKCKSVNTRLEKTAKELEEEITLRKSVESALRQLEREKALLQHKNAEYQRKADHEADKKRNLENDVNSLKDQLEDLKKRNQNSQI

Row | IC50 [1] [nM] | Selectivity against PKA (recombinant human PKA) [fold] | Selectivity against PKG [2] [fold] | SMILES
1 | ≤ 10 | >1000 | >1000 | CCCC1(C(N)CC)CCC(Oc2cc3cc[nH]c(=O)c3cc2Cl)CC1 (single isomer, unassigned) [Example 5, 6-[4-(1-Amino-propyl)-4-propyl-cyclohexyloxy]-7-chloro-2H-isoquinolin-1-one]
2 | ≤ 10 | >1000 | >1000 | CCCC1(C(N)C2CC2)CCC(Oc2cc3cc[nH]c(=O)c3cc2Cl)CC1 (single isomer, unassigned) [Example 6, 6-[4-(Amino-cyclopropyl-methyl)-4-propyl-cyclohexyloxy]-7-chloro-2H-isoquinolin-1-one]
3 | 10 to 100 | >300 | >100 | CCCC1(C(N)C2CC2)CCC(Oc2cc3cc[nH]c(=O)c3cc2Cl)CC1 (single isomer, unassigned) [Example 7, 6-[4-(Amino-cyclopropyl-methyl)-4-propyl-cyclohexyloxy]-7-chloro-2H-isoquinolin-1-one]
4 | ≤ 10 | >100 | >100 | CCC(N)C1(C(C)C)CCC(Oc2cc3cc[nH]c(=O)c3cc2Cl)CC1 (single isomer, unassigned) [Example 8, 6-[4-(1-Amino-propyl)-4-isopropyl-cyclohexyloxy]-7-chloro-2H-isoquinolin-1-one]
5 | 10 to 100 | >10 | >10 | CCC(N)C1(C(C)C)CCC(Oc2cc3cc[nH]c(=O)c3cc2Cl)CC1 (single isomer, unassigned) [Example 9, 6-[4-(1-Amino-propyl)-4-isopropyl-cyclohexyloxy]-7-chloro-2H-isoquinolin-1-one]
6 | ≤ 10 | >1000 | >300 | CC(N)C1(CC2CC2)CCC(Oc2cc3cc[nH]c(=O)c3cc2Cl)CC1 (single isomer, unassigned) [Example 10, 6-[4-(1-Amino-ethyl)-4-cyclopropylmethyl-cyclohexyloxy]-7-chloro-2H-isoquinolin-1-one]
7 | 10 to 100 | >100 | >300 | CC(N)C1(CC2CC2)CCC(Oc2cc3cc[nH]c(=O)c3cc2Cl)CC1 (single isomer, unassigned) [Example 11, 6-[4-(1-Amino-ethyl)-4-cyclopropylmethyl-cyclohexyloxy]-7-chloro-2H-isoquinolin-1-one]
8 | ≤ 10 | >1000 | >300 | CCC(N)C1(CC2CC2)CCC(Oc2cc3cc[nH]c(=O)c3cc2Cl)CC1 (single isomer, unassigned) [Example 12, 6-[4-(1-Amino-propyl)-4-cyclopropyl-methyl-cyclohexyl-oxy]-7-chloro-2H-isoquinolin-1-one]
9 | 10 to 100 | >10 | >10 | CCC(N)C1(CC2CC2)CCC(Oc2cc3cc[nH]c(=O)c3cc2Cl)CC1 (single isomer, unassigned) [Example 13, 6-[4-(1-Amino-propyl)-4-cyclopropyl-methyl-cyclohexyl-oxy]-7-chloro-2H-isoquinolin-1-one]

Row | SMILES | IC50 [1] [nM] | Selectivity against PKA (recombinant human PKA) [fold] | Selectivity against PKG [2] [fold]
10 | CCC(N)[C@]1(C2CCOCC2)CC[C@H](Oc2cc3cc[nH]c(=O)c3cc2Cl)CC1 (mixture of isomers) [Example 1, cis-6-[4-(1-Aminopropyl)-4-(tetrahydropyran-4-yl)-cyclohexyloxy]-7-chloro-2H-isoquinolin-1-one] | ≤ 10 | >1000 | >300
11 | CCC(N)[C@]1(C2CCOCC2)CC[C@H](Oc2cc3cc[nH]c(=O)c3cc2Cl)CC1 (single isomer, unassigned) [Example 2, 6-[4-(1-Aminopropyl)-4-(tetrahydropyran-4-yl)-cyclohexyloxy]-7-chloro-2H-isoquinolin-1-one] | 100 to 1000 | >10 | >1
12 | CCC1(C(C)N)CCC(Oc2cc3cc[nH]c(=O)c3cc2Cl)CC1 (single isomer, unassigned) [Example 3, 6-[4-(1-Amino-ethyl)-4-ethyl-cyclohexyloxy]-7-chloro-2H-isoquinolin-1-one] | ≤ 10 | >1000 | >1000
13 | CCC1(C(C)N)CCC(Oc2cc3cc[nH]c(=O)c3cc2Cl)CC1 (single isomer, unassigned) [Example 4, 6-[4-(1-Amino-ethyl)-4-ethyl-cyclohexyloxy]-7-chloro-2H-isoquinolin-1-one] | 10 to 100 | >300 | >100
14 | CCC(N)C1(Cc2ccccc2)CCC(Oc2cc3cc[nH]c(=O)c3cc2Cl)CC1 (single isomer, unassigned) [Example 31, 6-[4-(1-Amino-propyl)-4-benzyl-cyclohexyloxy]-7-chloro-2H-isoquinolin-1-one] | – | >10 | >100
